According to the NIST ThermoML archive (doi:10.1016/j.jct.2006.03.014):
Numbers after ± are expanded uncertainties.

Tests used:
[1] = xn = mol fraction of the nth substance listed; conditions: 101 kPa, Liquid, x2 = 0; for viscosity: Capillary tube (Ostwald / Ubbelohde) method; for mass density: Pycnometric method
[2] = 101 kPa, Liquid; for viscosity: Capillary tube (Ostwald / Ubbelohde) method; for mass density: Pycnometric method
[3] = refractive index (Na D-line) (dimensionless); conditions: 298.15 K; 101.33 kPa; Liquid; Standard Abbe refractometry

SMILES: CCOC(C)=O [ethyl acetate] + CC1OC(C)OC(C)O1
- viscosity ([1]; 298.15 K): 0.43 ± 0.008 mPa·s
- mass density ([1]; 298.15 K): 893.8 ± 1.2 kg/m3
- viscosity ([1]; 303.15 K): 0.401 ± 0.008 mPa·s
- mass density ([1]; 303.15 K): 887.6 ± 1.2 kg/m3
- viscosity ([1]; 308.15 K): 0.387 ± 0.008 mPa·s
- mass density ([1]; 308.15 K): 881.2 ± 1.2 kg/m3

SMILES: CC1OC(C)OC(C)O1 (stereo not given) [2,4,6-trimethyl-1,3,5-trioxane]
- viscosity ([2]; 298.15 K): 1.107 ± 0.015 mPa·s
- mass density ([2]; 298.15 K): 988.4 ± 1.3 kg/m3
- viscosity ([2]; 303.15 K): 1.001 ± 0.014 mPa·s
- mass density ([2]; 303.15 K): 982.6 ± 1.3 kg/m3
- viscosity ([2]; 308.15 K): 0.907 ± 0.013 mPa·s
- mass density ([2]; 308.15 K): 976.4 ± 1.4 kg/m3

SMILES: COC(C)=O [methyl ethanoate]
- viscosity ([2]; 298.15 K): 0.367 ± 0.008 mPa·s
- mass density ([2]; 298.15 K): 926.7 ± 1.3 kg/m3
- viscosity ([2]; 303.15 K): 0.351 ± 0.007 mPa·s
- mass density ([2]; 303.15 K): 919.7 ± 1.2 kg/m3
- viscosity ([2]; 308.15 K): 0.338 ± 0.007 mPa·s
- mass density ([2]; 308.15 K): 916.2 ± 1 kg/m3
- refractive index [3]: 1.3585 ± 0.0009

SMILES: CCCCOC(C)=O [butyl ethanoate]
- viscosity ([2]; 298.15 K): 0.685 ± 0.01 mPa·s
- mass density ([2]; 298.15 K): 876.4 ± 1.1 kg/m3
- viscosity ([2]; 303.15 K): 0.636 ± 0.01 mPa·s
- mass density ([2]; 303.15 K): 871.3 ± 1.1 kg/m3
- viscosity ([2]; 308.15 K): 0.579 ± 0.009 mPa·s
- mass density ([2]; 308.15 K): 866.2 ± 1.1 kg/m3
- refractive index [3]: 1.3918 ± 0.0009

SMILES: CCOC(C)=O [ethyl acetate]
- viscosity ([2]; 298.15 K): 0.43 ± 0.008 mPa·s
- mass density ([2]; 298.15 K): 893.8 ± 1.2 kg/m3
- viscosity ([2]; 303.15 K): 0.401 ± 0.008 mPa·s
- mass density ([2]; 303.15 K): 887.6 ± 1.2 kg/m3
- viscosity ([2]; 308.15 K): 0.387 ± 0.008 mPa·s
- mass density ([2]; 308.15 K): 881.2 ± 1.2 kg/m3
- refractive index [3]: 1.37 ± 0.0009

SMILES: CCCCOC(C)=O [butyl ethanoate] + CC1OC(C)OC(C)O1
- viscosity ([1]; 298.15 K): 0.685 ± 0.01 mPa·s
- mass density ([1]; 298.15 K): 876.4 ± 1.1 kg/m3
- viscosity ([1]; 303.15 K): 0.636 ± 0.01 mPa·s
- mass density ([1]; 303.15 K): 871.3 ± 1.1 kg/m3
- viscosity ([1]; 308.15 K): 0.579 ± 0.009 mPa·s
- mass density ([1]; 308.15 K): 866.2 ± 1.1 kg/m3

SMILES: COC(C)=O [methyl ethanoate] + CC1OC(C)OC(C)O1
- viscosity ([1]; 298.15 K): 0.367 ± 0.008 mPa·s
- mass density ([1]; 298.15 K): 926.7 ± 1.3 kg/m3
- viscosity ([1]; 303.15 K): 0.351 ± 0.007 mPa·s
- mass density ([1]; 303.15 K): 919.7 ± 1.2 kg/m3
- viscosity ([1]; 308.15 K): 0.338 ± 0.007 mPa·s
- mass density ([1]; 308.15 K): 916.2 ± 1 kg/m3
